Source: ChEMBL document CHEMBL1759934, “Virtual screening-driven identification of human carbonic anhydrase inhibitors incorporating an original, new pharmacophore” (Bioorg Med Chem Lett, 2011)

How the values were obtained:
Carbonic anhydrase 1 = Carbonic anhydrase 1 (Homo sapiens, UniProt P00915); assay: Inhibition of human carbonic anhydrase 1 after 6 hrs by Lineweaver-Burk plot analysis
Carbonic anhydrase 2 = Carbonic anhydrase 2 (Homo sapiens, UniProt P00918); assay: Inhibition of human carbonic anhydrase 2 after 6 hrs by Lineweaver-Burk plot analysis

Carbonic anhydrase 1, sequence (P00915 whole entry): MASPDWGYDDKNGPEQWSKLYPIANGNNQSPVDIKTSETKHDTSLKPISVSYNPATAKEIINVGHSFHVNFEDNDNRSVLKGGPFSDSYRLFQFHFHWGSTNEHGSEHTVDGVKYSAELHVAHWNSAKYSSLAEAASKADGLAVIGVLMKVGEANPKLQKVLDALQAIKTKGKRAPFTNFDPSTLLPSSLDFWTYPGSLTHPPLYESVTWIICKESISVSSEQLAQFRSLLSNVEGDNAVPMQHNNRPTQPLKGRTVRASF

Ki (Carbonic anhydrase 1): 410 µM
Ki (Carbonic anhydrase 2): 9 µM
Compound: Cc1ccc(C(=O)C(O)(O)C(F)(F)F)cc1
